From patent publication US20200188361A1, “USE OF MITOCHONDRIAL ACTIVITY INHIBITORS FOR THE TREATMENT OF POOR PROGNOSIS ACUTE MYELOID LEUKEMIA” (UNIVERSITE DE MONTREAL, priority 2016, published 2020) come the findings set out here.

This assay concerns OCI-AML3 cells. How it is done:
LC/MS Metabolite Measurements (Citric Acid Cycle Intermediates and Glutathione) LC/MS metabolite measurements were carried out at the McGill Metabolomics platform. Authentic metabolite standards were purchased from Sigma-Aldrich Co., while the following LC/MS grade solvents and additives were purchased from Fisher: ammonium acetate, formic acid, water, methanol, and acetonitrile. OCI-AML3 cells (5 million cells, quadruplicates, treated with either DMSO or Mubritinib 500 nM for 20 h) were washed twice with ice-cold 150 mM ammonium formate pH 7.2. Metabolites were then extracted using 380 μl of LC/MS grade 50% methanol/50% water mixture and 220 μl of cold acetonitrile. Samples were then homogenized by 1.4 mm ceramic bead beating 2 min at 30 Hz (TissueLyser, Qiagen). A volume of 300 μl of ice-cold water and 600 μl of ice-cold methylene chloride were added to the lysates. Samples were vortexed and allowed to rest on ice for 10 min for phase separation followed by centrifugation at 4,000 rpm for 5 min. The upper aqueous layer was transferred to a fresh pre-chilled tube. Samples were eventually dried by vacuum centrifugation operating at −4° C. (Labconco) and stored at −80° C. until ready for LC-MS/MS data collection. For LC-MS/MS analysis, specimens were first re-suspended in 50 μl of water and clarified by centrifugation for 15 min at 15,000 rpm at 1° C. Samples were maintained at 4° C. for the duration of the LC-MS/MS analysis in the autosampler.

Setting [1] is: 500 nM, 24 h, relative to DMSO control.

Consider `FC(F)(F)c1ccc(/C=C/c2nc(COc3ccc(CCCCn4ccnn4)cc3)co2)cc1` [Mubritinib, 1-(4-{4-[(2-{(E)-2-[4-(trifluoromethyl)phenyl]ethenyl}-1,3-oxazol-4-yl)methoxy]phenyl}butyl)-1H-1,2,3-triazole], for which, under setting [1], the “levels of oxidized glutathione” value is “increased” and the “levels of reduced glutathione” value is “decreased”. For the same molecule, the level of citrate entry (OCI-AML3, Mubritinib 500 nM for 20 h vs DMSO (FIG. 6A)) is given as “reduces the levels”. The level of alpha-ketoglutarate entry (OCI-AML3, Mubritinib 500 nM for 20 h vs DMSO (FIG. 6B)) is given as “reduces the levels”. For the same molecule, the level of succinate entry (OCI-AML3, Mubritinib 500 nM for 20 h vs DMSO (FIG. 6C)) is “reduces the levels”. Further, where the note is “OCI-AML3, Mubritinib 500 nM for 20 h vs DMSO (FIG. 6D)”, the level of fumarate entry is given as “reduces the levels”. Moreover, the level of malate result (OCI-AML3, Mubritinib 500 nM for 20 h vs DMSO (FIG. 6E)) is “reduces the levels”.
